“And” between values parts separate entries of the source, which are not always exact repeats. Identical values can stand only once.

In the test the target is human CTPS1 (Homo sapiens (Human), UniProt P17812). Description: hCTPS1 biochemical assay (ADP-Glo). To be noted: hCTPS1 25 nM, ATP 120 uM, UTP 160 uM, GTP 60 uM, L-Glutamine 100 uM, 25 degrees C. For orientation: ADP-Glo first removes unused ATP, then detects ADP through luciferase.
human CTPS1, sequence (P17812 whole entry): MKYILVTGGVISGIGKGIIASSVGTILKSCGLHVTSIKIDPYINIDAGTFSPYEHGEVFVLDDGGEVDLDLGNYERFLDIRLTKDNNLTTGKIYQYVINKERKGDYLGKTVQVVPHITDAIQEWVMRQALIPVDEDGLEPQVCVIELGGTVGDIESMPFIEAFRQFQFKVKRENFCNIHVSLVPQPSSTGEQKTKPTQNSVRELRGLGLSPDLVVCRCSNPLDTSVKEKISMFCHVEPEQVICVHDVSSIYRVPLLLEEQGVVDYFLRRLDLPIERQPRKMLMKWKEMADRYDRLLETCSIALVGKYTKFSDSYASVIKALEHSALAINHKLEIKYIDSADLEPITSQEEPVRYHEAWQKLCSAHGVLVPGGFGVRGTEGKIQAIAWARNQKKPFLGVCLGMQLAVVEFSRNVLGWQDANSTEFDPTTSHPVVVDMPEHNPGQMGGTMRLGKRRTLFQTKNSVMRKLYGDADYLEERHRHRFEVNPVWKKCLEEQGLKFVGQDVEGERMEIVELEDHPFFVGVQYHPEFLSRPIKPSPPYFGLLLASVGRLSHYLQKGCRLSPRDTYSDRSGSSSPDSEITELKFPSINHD

As to `CCOc1cncc(-c2ccc(NC(=O)[C@](F)(CC)c3cc(NS(=O)(=O)C4CC4)ccn3)nc2)n1` [I-259, (S)-2-(4-(cyclopropanesulfonamido)pyridin-2-yl)-N-(5-(6-ethoxypyrazin-2-yl)pyridin-2-yl)-2-fluorobutanamide], the IC50 (usually the concentration at which inhibition is half-maximal) is under 100 nM.

On to `O=C(NC1(c2csc(NS(=O)(=O)C3CC3)n2)CC1)c1ccc(-c2cnc3n2CCCC3)cc1` [I-260, N-[1-(2-cyclopropanesulfonamido-1,3-thiazol-4-yl)cyclopropyl]-4-[5H, 6H, 7H, 8H-imidazo[1,2-a]pyridin-3-yl]benzamide], for which the half-maximal inhibitory concentration (IC50) was at least 1000 nM.

Take `Cc1c(-c2ccc(C(=O)NC3(c4csc(NS(=O)(=O)C5CC5)n4)CC3)cc2)cnn1C` [I-261, N-[1-(2-cyclopropanesulfonamido-1,3-thiazol-4-yl)cyclopropyl]-4-(1,5-dimethylpyrazol-4-yl)benzamide]: the concentration for half-maximal inhibition (IC50) is at least 1000 nM.

`CCOc1cncc(-c2cnc(C(=O)NC(C)(C)c3cccc(NS(=O)(=O)C(F)F)c3)s2)n1` [I-262, N-{2-[3-(difluoromethanesulfonamido)phenyl]propan-2-yl}-5-(6-ethoxypyrazin-2-yl)-1,3-thiazole-2-carboxamide] gave an IC50 of under 100 nM.

Molecule `C[C@H]1Cc2nc(C(=O)NCc3cc(NS(=O)(=O)C4CC4)ccn3)cnc2N(C2CCC2)C1` [I-263, (S)-5-cyclobutyl-N-((4-(cyclopropanesulfonamido)pyridin-2-yl)methyl)-7-methyl-5,6,7,8-tetrahydropyrido[2,3-b]pyrazine-2-carboxamide] returned an IC50 of at least 1000 nM.

The molecule `C[C@@H]1Cc2nc(C(=O)NCc3cc(NS(=O)(=O)C4CC4)ccn3)cnc2N(C2CCC2)C1` [I-264, (R)-5-cyclobutyl-N-((4-(cyclopropanesulfonamido)pyridin-2-yl)methyl)-7-methyl-5,6,7,8-tetrahydropyrido[2,3-b]pyrazine-2-carboxamide] registered a 50% inhibitory concentration (IC50) of at least 1000 nM.

As for `CCOc1cncc(-c2ccc(C(=O)NC3(c4cccc(NS(=O)(=O)C(F)F)c4)CC3)nc2)n1` [I-265, N-[1-[3-(difluoromethanesulfonamido)phenyl]cyclopropyl]-5-(6-ethoxypyrazin-2-yl)pyridine-2-carboxamide], the IC50 was under 100 nM.

Turning to `CCOc1cncc(-c2ccc(C(=O)NC3(c4cccc(NS(=O)(=O)C(F)F)c4)CC3)cc2)n1` [I-266, N-(1-(3-((difluoromethyl)sulfonamido)phenyl)cyclopropyl)-4-(6-ethoxypyrazin-2-yl)benzamide], the IC50 is under 100 nM.

Molecule `CCOc1cncc(-c2ccc(C(=O)NC3(c4cccc(NS(=O)(=O)C(F)F)c4)CC3)c(F)c2)n1` [I-267, N-[1-[3-(difluoromethanesulfonamido)phenyl]cyclopropyl]-4-(6-ethoxypyrazin-2-yl)-2-fluorobenzamide] showed an IC50 of under 100 nM.

`CCOc1cncc(-c2ccc(C(=O)NC3(c4cccc(NS(=O)(=O)C(F)F)c4)CC3)s2)n1` [I-269, N-(1-(3-((difluoromethyl)sulfonamido)phenyl)cyclopropyl)-5-(6-ethoxypyrazin-2-yl)thiophene-2-carboxamide]: the IC50 is under 100 nM.

Molecule `CCOc1cncc(-c2cnc(C(=O)N3CCC[C@@H]3c3ccnc(NS(=O)(=O)C4CC4)n3)s2)n1` [I-270, N-[4-[(2R)-1-[5-(6-ethoxypyrazin-2-yl)-1,3-thiazole-2-carbonyl]pyrrolidin-2-yl]pyrimidin-2-yl]cyclopropanesulfonamide] gave a half-inhibitory concentration (IC50) of 100 to 1000 nM.

For the molecule `CCOc1cncc(-c2cnc(C(=O)N3CCC[C@H]3c3ccnc(NS(=O)(=O)C4CC4)n3)s2)n1` [I-271, N-[4-[(2S)-1-[5-(6-ethoxypyrazin-2-yl)-1,3-thiazole-2-carbonyl]pyrrolidin-2-yl]pyrimidin-2-yl]cyclopropanesulfonamide], the half-maximal inhibitory concentration (IC50) is under 100 nM.

For the molecule `CCOc1cncc(-c2cnc(C(=O)N[C@H](C)c3cccc(NS(=O)(=O)C(F)F)c3)s2)n1` [I-272, N-[(1R)-1-[3-(difluoromethanesulfonamido)phenyl]ethyl]-5-(6-ethoxypyrazin-2-yl)-1,3-thiazole-2-carboxamide], the half-maximal inhibitory concentration (IC50) is under 100 nM.

The molecule `CCOc1cncc(-c2cnc(C(=O)N[C@@H](C)c3cccc(NS(=O)(=O)C(F)F)c3)s2)n1` [I-273, N-[(1S)-1-[3-(difluoromethanesulfonamido)phenyl]ethyl]-5-(6-ethoxypyrazin-2-yl)-1,3-thiazole-2-carboxamide] gave an IC50 of under 100 nM.

In turn, `CCOc1cncc(-n2cc(C(=O)NC3(c4cccc(NS(=O)(=O)C(F)F)c4)CC3)cn2)n1` [I-274, N-[1-[3-(difluoromethanesulfonamido)phenyl]cyclopropyl]-1-(6-ethoxypyrazin-2-yl)pyrazole-4-carboxamide] came in with an IC50 of under 100 nM.

Molecule `CCOc1cncc(-n2cnc(C(=O)N3CCC[C@@H]3c3ccnc(NS(=O)(=O)C4CC4)n3)c2)n1` [I-275, N-[4-[(2R)-1-[1-(6-ethoxypyrazin-2-yl)imidazole-4-carbonyl]pyrrolidin-2-yl]pyrimidin-2-yl]cyclopropanesulfonamide] yielded an IC50 of at least 1000 nM.

`CCOc1cncc(-n2cnc(C(=O)N3CCC[C@H]3c3ccnc(NS(=O)(=O)C4CC4)n3)c2)n1` [I-276, N-[4-[(2S)-1-[1-(6-ethoxypyrazin-2-yl)imidazole-4-carbonyl]pyrrolidin-2-yl]pyrimidin-2-yl]cyclopropanesulfonamide] showed an IC50 of under 100 nM.

`CCOc1cncc(-c2cnc(C(=O)N[C@H](CC)c3cc(NS(=O)(=O)C4CC4)ccn3)s2)n1` [I-277]: the IC50 was under 100 nM.

Consider `CCOc1cncc(-c2cnc(C(=O)N[C@@H](CC)c3cc(NS(=O)(=O)C4CC4)ccn3)s2)n1` [I-278], for which the 50% inhibitory concentration (IC50) is under 100 nM.

As to `Cc1nc(C(=O)NCc2cc(NS(=O)(=O)C3CC3)ccn2)cnc1N1CCC12CCCCC2` [I-279], the 50% inhibitory concentration (IC50) is under 100 nM.

Turning to `CCOc1cncc(-c2cccc(C(=O)NCc3cccc(NS(=O)(=O)C(F)F)c3)c2)n1` [I-280, N-[[3-(difluoromethanesulfonamido)phenyl]methyl]-3-(6-ethoxypyrazin-2-yl)benzamide], the half-maximal inhibitory concentration (IC50) was at least 1000 nM.

Take `CCOc1cncc(-n2ccc(C(=O)NC3(c4cccc(NS(=O)(=O)C(F)F)c4)CC3)n2)n1` [I-282, N-[1-[3-(difluoromethanesulfonamido)phenyl]cyclopropyl]-1-(6-ethoxypyrazin-2-yl)pyrazole-3-carboxamide]: the IC50 is < 100 nM and ≥ 1000 nM.

As for `CCOc1cncc(-n2cnc(C(=O)NC3(c4cccc(NS(=O)(=O)C(F)F)c4)CC3)c2)n1` [I-283, N-[1-[3-(difluoromethanesulfonamido)phenyl]cyclopropyl]-1-(6-ethoxypyrazin-2-yl)imidazole-4-carboxamide], the IC50 was under 100 nM.

For the molecule `CCOc1cncc(-c2ccc(C(=O)N3CCC[C@@H]3c3ccnc(NS(=O)(=O)C4CC4)n3)c(F)c2)n1` [I-285, N-[4-[(2R)-1-[4-(6-ethoxypyrazin-2-yl)-2-fluorobenzoyl]pyrrolidin-2-yl]pyrimidin-2-yl]cyclopropanesulfonamide], the IC50 lay in the range of 100 to 1000 nM.

`CCOc1cncc(-c2ccc(C(=O)N3CCC[C@H]3c3ccnc(NS(=O)(=O)C4CC4)n3)c(F)c2)n1` [I-286, N-[4-[(2S)-1-[4-(6-ethoxypyrazin-2-yl)-2-fluorobenzoyl]pyrrolidin-2-yl]pyrimidin-2-yl]cyclopropanesulfonamide] had a half-maximal inhibitory concentration (IC50) of under 100 nM.

Take `CCOc1cncc(-c2ccc(NC(=O)C(NC(=O)CCOCCNC(=O)OC(C)(C)C)c3csc(NS(=O)(=O)C4CC4)n3)cc2)n1` (stereo not drawn) [Z-7, tert-butyl 2-(3-(1-(2-(cyclopropanesulfonamido)thiazol-4-yl)-2-(4-(6-ethoxypyrazin-2-yl)phenylamino)-2-oxoethylamino)-3-oxopropoxy)ethylcarbamate]: the 50% inhibitory concentration (IC50) was under 100 nM.

Molecule `CCOc1cncc(-c2ccc(NC(=O)C(NC(=O)CCOCCOCCNC(=O)OC(C)(C)C)c3csc(NS(=O)(=O)C4CC4)n3)cc2)n1` (stereo not drawn) [Z-8, tert-butyl 2-(2-(3-(1-(2-(cyclopropanesulfonamido)thiazol-4-yl)-2-(4-(6-ethoxypyrazin-2-yl)phenylamino)-2-oxoethylamino)-3-oxopropoxy)ethoxy)ethylcarbamate] yielded a 50% inhibitory concentration (IC50) of under 100 nM.

(Values after US12331046B2, “CTPS1 inhibitors and uses thereof” (Nimbus Clotho, Inc., priority 2020, dated 2025).)
